Measured values taken from PubChem BioAssay (NCI).
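Grown in 96-well plates, cells were treated for 48 hours with each compound at five concentrations. Insufficient inhibition: endpoint recorded as highest concentration tested. At the GI50, growth is halved. TGI: total growth inhibition.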

Experiments:
Assay in all cases: DTP human tumour cell line panel, 48 h
CCRF-CEM leukemia = system: CCRF-CEM leukemia
KM12 colon = system: KM12 colon
OVCAR-5 ovarian = system: OVCAR-5 ovarian
SK-MEL-2 melanoma = system: SK-MEL-2 melanoma
SK-MEL-28 melanoma = system: SK-MEL-28 melanoma
SNB-19 CNS = system: SNB-19 CNS
SW-620 colon = system: SW-620 colon
PC-3 prostate = system: PC-3 prostate
BT-549 breast = system: BT-549 breast
MDA-N = system: MDA-N

Row | Compound | TGI (CCRF-CEM leukemia) [µM] | TGI (KM12 colon) [µM] | TGI (OVCAR-5 ovarian) [µM] | TGI (SK-MEL-2 melanoma) [µM] | TGI (SK-MEL-28 melanoma) [µM] | TGI (SNB-19 CNS) [µM] | TGI (SW-620 colon) [µM] | GI50 (CCRF-CEM leukemia) [µM] | GI50 (KM12 colon) [µM] | GI50 (OVCAR-5 ovarian) [µM] | GI50 (PC-3 prostate) [µM] | TGI (PC-3 prostate) [µM] | GI50 (SK-MEL-28 melanoma) [µM] | GI50 (SNB-19 CNS) [µM] | GI50 (SW-620 colon) [µM] | TGI (BT-549 breast) [µM] | TGI (MDA-N) [µM] | GI50 (BT-549 breast) [µM]
1 | CSCC[C@@H](NC(=O)[C@H](CC(C)C)NC(=O)C(Cc1cnc[nH]1)NC(=O)CNC(=O)[C@@H](NC(=O)[C@H](C)NC(=O)[C@H](Cc1c[nH]c2ccccc12)NC(=O)[C@H](CCC(N)=O)NC(=O)[C@@H](N)CC(N)=O)C(C)C)C(N)=O (stereo not given in full) | > 100 | > 100 | > 100 | > 100 | > 100 | > 100 | > 100 | – | – | – | – | – | – | – | – | – | – | –
2 | c1ccc(-c2c(-c3ccccc3)[n+](Cc3ccc4ccccc4c3)c(-c3ccc(-c4nc5ccccc5s4)cc3)n2Cc2ccc3ccccc3c2)cc1 | > 41.5 | 0.336 | 1.17 | – | 1.57 | 1.26 | 0.764 | 0.202 | 0.13 | 0.311 | 0.111 | 0.528 | 0.368 | 0.0784 | 0.14 | – | – | –
3 | O=c1c2c3c(sc2[nH]c(=S)n1-c1ccccc1)CCCc1ccc([N+](=O)[O-])cc1-3 | – | > 100 | > 100 | > 100 | > 100 | > 100 | 25.4 | – | – | – | – | > 100 | – | – | – | 72.6 | > 100 | –
4 | COC(=O)CC(=O)OSc1ccccc1 | > 100 | > 100 | > 100 | 97.5 | – | > 100 | 38.4 | – | – | – | – | – | – | – | – | – | – | –
5 | CN(C)C(=O)C(F)(F)C(c1ccc(F)cc1)C1C(=O)N(C)C(=O)N(C)C1=O (stereo not given) | > 100 | > 100 | > 100 | > 100 | > 100 | > 100 | > 100 | – | – | – | – | > 100 | – | – | – | > 100 | – | –
6 | Cc1c(N2CCOCC2)nc2ccc(Cl)cc2c1-c1ccccc1 | > 100 | > 100 | – | > 100 | > 100 | > 100 | > 100 | – | – | – | – | – | – | – | – | – | – | –
7 | O=c1[nH]c(NCc2ccncc2)nc2nc[nH]c12 | > 100 | > 100 | > 100 | > 100 | – | > 100 | > 100 | – | – | – | – | > 100 | – | – | – | > 100 | > 100 | –
8 | Cc1ccc(-c2cc(-c3ccco3)c(C#N)c(=S)[nH]2)cc1 | > 100 | > 100 | > 100 | – | > 100 | > 100 | > 100 | – | – | – | – | > 100 | – | – | – | > 100 | – | –
9 | Cc1cc([N+](=O)[O-])c(C)c2c1[nH]c1ccc(Cl)cc12 | > 100 | > 100 | > 100 | > 100 | > 100 | > 100 | > 100 | – | – | – | – | – | – | – | – | – | – | –
10 | COc1ccc(C2Oc3ccc(Cl)cc3C=C2[N+](=O)[O-])cc1 (stereo not given) | > 100 | > 100 | > 100 | – | > 100 | > 100 | – | – | – | – | – | > 100 | – | – | – | > 100 | > 100 | –
11 | COCOc1ccc(C(=O)Oc2cccc3c2OC(C)(C)O3)c(OCOC)c1 | > 100 | 91.1 | > 100 | – | > 100 | – | > 100 | – | – | – | – | – | – | – | – | – | > 100 | –
12 | NCCN1CCCCCc2ccccc21 | > 10 | > 10 | – | > 10 | > 10 | > 10 | > 10 | – | – | – | – | > 10 | – | – | – | – | – | –
13 | COc1cc2nc(-c3ccc(Cl)cc3)cc(OCCCN3CCOCC3)c2cc1OC | > 100 | > 100 | > 100 | – | – | – | > 100 | 3.35 | 3.87 | 1.58 | 2.63 | > 100 | – | – | 3.57 | > 100 | – | 2.59
14 | CC(C)Oc1cccc(N2C(n3ccnc3)=Nc3ccncc3S2(=O)=O)c1 | – | 49.5 | 27.6 | 26.7 | 33 | 36 | 40.1 | – | – | – | – | 22.7 | – | – | – | 29 | 25.4 | –
15 | COC(=O)CNC(=O)C(CSC(=O)OCC1c2ccccc2-c2ccccc21)NC(=O)CCC(NC(=O)OCC1c2ccccc2-c2ccccc21)C(=O)OC (stereo not given) | 38.7 | – | 76.7 | 31.1 | > 100 | 68.1 | > 100 | – | – | – | – | > 100 | – | – | – | 31.3 | 38.5 | –
16 | CO/N=C1\CC(NC(=O)C(F)(F)F)c2ccsc21 (stereo not given) | > 100 | – | > 100 | > 100 | > 100 | – | > 100 | – | – | – | – | > 100 | – | – | – | > 100 | > 100 | –
17 | COc1ccc(CNc2cnc3ccc(N)cc3n2)cc1 | > 100 | > 100 | > 100 | > 100 | > 100 | > 100 | > 100 | – | – | – | – | – | – | – | – | – | – | –
18 | COc1cc2ccc3c4cc(OC)c(OC)cc4c[n+](C)c3c2cc1O | > 100 | > 100 | > 100 | > 100 | > 100 | > 100 | > 100 | – | – | – | – | – | – | – | – | – | – | –
19 | CN(C)CCNC(=O)c1cccc2c1Nc1ccccc1S2 | 28.1 | 26.4 | 26.3 | 30.3 | 27.7 | 24 | 30.8 | – | – | – | – | – | – | – | – | – | – | –
20 | CC(=O)NNc1nc(C)c(C(=O)NNC(=O)C(=O)Nc2ccc([N+](=O)[O-])cc2[N+](=O)[O-])s1 | 79.6 | > 100 | > 100 | > 100 | > 100 | > 100 | > 100 | – | – | – | – | – | – | – | – | – | – | –
21 | CCOC(=O)C1C(c2ccc(Cl)cc2Cl)NC(c2ccc(C)cc2)C(C(=O)OC)S1(=O)=O (stereo not given) | > 100 | > 100 | > 100 | > 100 | > 100 | > 100 | > 100 | – | – | – | – | – | – | – | – | – | – | –
22 | CCOC(=O)/C=C/c1nc(C#N)c(N)o1 | > 100 | > 100 | > 100 | > 100 | > 100 | > 100 | > 100 | – | – | – | – | > 100 | – | – | – | – | > 100 | –
23 | O=C1C=CC2(O[C@H](c3ccccc3)[C@@H](c3ccccc3)O2)[C@H](Sc2ccccc2O)C1 | – | 6.45 | 4.49 | 4.63 | – | 3.74 | > 100 | – | – | – | – | 2.06 | – | – | – | 1.46 | 1.13 | –
24 | CN(/N=C1\C(=O)Nc2ccccc21)c1ccccc1 | > 100 | > 100 | > 100 | > 100 | > 100 | > 100 | > 100 | – | – | – | – | > 100 | – | – | – | – | > 100 | –
